From patent publication US20050282743A1, “Molecular interactions in cells” (Arbor Vita Corporation, priority 2001, published 2005) come the findings set out here.

What all share (experiment): G' assay (10 uM PL peptide), results of TABLE 7 and TABLE 12
Assay type in all cases: binding

Experiment [1] has as its target T1, PDZ protein (GST-PDZ fusion) (Homo sapiens, UniProt Q07157).
T1 construct: made in house; host or cells: E. coli (DH5alpha, BL21 or JM109)
The procedure, abridged: (§1)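 Biotinylated PL peptides at 10 uM (vs 20 uM in G^0 assay) bound to GST-PDZ fusions; PDZ protein at 5 ug/ml unless another concentration listed. Bound peptide read as A450 nm, classified 0–5 (0 = A450 0; 5 = A450 >4 repeated).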

In experiment [2] the target is T2, PDZ protein (GST-PDZ fusion) (Homo sapiens, UniProt P29475).
T2 construct: made in house; host or cells: E. coli (DH5alpha, BL21 or JM109)
As to conditions: PDZ NOS1, PDZ Domain 1. The essentials: as §1

Experiment [3] deals with T3, PDZ protein (GST-PDZ fusion) (Homo sapiens, UniProt Q96JY6).
T3 construct: made in house; host or cells: E. coli (DH5alpha, BL21 or JM109)
T3 sequence (Q96JY6 1-352): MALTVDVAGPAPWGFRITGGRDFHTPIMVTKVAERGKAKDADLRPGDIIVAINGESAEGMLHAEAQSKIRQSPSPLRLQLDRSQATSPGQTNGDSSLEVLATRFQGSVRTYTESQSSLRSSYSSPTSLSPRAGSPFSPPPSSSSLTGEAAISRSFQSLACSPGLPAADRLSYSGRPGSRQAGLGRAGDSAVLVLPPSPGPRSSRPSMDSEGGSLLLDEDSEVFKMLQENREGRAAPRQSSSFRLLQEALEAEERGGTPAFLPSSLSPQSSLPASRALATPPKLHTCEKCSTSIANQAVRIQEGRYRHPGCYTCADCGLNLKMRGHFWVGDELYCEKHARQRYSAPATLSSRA
As to conditions: PDZ LIM-Mystique, PDZ Domain 1. The essentials:
as §1

For experiment [4], the target named is T4, PDZ protein (GST-PDZ fusion) (Homo sapiens, UniProt O14908).
T4 construct: made in house; host or cells: E. coli (DH5alpha, BL21 or JM109)
T4 sequence (O14908 1-333): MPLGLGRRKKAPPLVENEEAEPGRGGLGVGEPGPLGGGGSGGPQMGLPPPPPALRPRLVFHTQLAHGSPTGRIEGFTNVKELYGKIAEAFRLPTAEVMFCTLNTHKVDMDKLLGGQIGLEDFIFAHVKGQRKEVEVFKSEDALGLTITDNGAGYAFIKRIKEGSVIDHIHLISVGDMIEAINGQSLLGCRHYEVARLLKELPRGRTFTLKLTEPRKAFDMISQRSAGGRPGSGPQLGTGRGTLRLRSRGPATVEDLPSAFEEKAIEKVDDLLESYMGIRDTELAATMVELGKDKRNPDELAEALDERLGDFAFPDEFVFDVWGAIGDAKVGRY
As to conditions: PDZ TAX IP2, PDZ Domain 1. The essentials:
as §1

In experiment [5] the target is T5, PDZ protein (GST-PDZ fusion) (Homo sapiens, UniProt Q9NSN8).
T5 construct: made in house; host or cells: E. coli (DH5alpha, BL21 or JM109)
T5 sequence (Q9NSN8 1-517): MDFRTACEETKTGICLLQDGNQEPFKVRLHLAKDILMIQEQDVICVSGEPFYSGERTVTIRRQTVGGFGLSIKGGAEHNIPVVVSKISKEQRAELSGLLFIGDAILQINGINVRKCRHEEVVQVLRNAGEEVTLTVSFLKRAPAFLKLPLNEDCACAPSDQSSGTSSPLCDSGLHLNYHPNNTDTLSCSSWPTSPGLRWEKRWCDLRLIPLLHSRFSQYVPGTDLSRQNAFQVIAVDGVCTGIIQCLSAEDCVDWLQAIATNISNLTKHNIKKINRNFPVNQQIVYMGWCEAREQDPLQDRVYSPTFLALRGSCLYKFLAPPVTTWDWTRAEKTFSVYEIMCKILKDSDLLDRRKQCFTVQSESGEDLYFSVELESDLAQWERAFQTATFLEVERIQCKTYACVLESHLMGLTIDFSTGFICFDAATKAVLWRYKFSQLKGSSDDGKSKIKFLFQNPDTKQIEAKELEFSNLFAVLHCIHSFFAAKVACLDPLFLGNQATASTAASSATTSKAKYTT
Particulars: PDZ Syntrophin gamma-1, PDZ Domain 1. The essentials:
as §1

The target of experiment [6] is T6, PDZ protein (GST-PDZ fusion) (Homo sapiens, UniProt Q9Y2H9).
T6 construct: made in house; host or cells: E. coli (DH5alpha, BL21 or JM109)
Particulars: PDZ KIAA0973, PDZ Domain 1. The essentials:
as §1

Ends that are not written are not given here. Peptide text beside a SMILES is read from it. * marks the point of attachment. Biotin = O=C1N[C@H]2[C@H](CS[C@H]2CCCCC(=O)*)N1

T2 sequence (P29475 whole entry, the tested form may be a part): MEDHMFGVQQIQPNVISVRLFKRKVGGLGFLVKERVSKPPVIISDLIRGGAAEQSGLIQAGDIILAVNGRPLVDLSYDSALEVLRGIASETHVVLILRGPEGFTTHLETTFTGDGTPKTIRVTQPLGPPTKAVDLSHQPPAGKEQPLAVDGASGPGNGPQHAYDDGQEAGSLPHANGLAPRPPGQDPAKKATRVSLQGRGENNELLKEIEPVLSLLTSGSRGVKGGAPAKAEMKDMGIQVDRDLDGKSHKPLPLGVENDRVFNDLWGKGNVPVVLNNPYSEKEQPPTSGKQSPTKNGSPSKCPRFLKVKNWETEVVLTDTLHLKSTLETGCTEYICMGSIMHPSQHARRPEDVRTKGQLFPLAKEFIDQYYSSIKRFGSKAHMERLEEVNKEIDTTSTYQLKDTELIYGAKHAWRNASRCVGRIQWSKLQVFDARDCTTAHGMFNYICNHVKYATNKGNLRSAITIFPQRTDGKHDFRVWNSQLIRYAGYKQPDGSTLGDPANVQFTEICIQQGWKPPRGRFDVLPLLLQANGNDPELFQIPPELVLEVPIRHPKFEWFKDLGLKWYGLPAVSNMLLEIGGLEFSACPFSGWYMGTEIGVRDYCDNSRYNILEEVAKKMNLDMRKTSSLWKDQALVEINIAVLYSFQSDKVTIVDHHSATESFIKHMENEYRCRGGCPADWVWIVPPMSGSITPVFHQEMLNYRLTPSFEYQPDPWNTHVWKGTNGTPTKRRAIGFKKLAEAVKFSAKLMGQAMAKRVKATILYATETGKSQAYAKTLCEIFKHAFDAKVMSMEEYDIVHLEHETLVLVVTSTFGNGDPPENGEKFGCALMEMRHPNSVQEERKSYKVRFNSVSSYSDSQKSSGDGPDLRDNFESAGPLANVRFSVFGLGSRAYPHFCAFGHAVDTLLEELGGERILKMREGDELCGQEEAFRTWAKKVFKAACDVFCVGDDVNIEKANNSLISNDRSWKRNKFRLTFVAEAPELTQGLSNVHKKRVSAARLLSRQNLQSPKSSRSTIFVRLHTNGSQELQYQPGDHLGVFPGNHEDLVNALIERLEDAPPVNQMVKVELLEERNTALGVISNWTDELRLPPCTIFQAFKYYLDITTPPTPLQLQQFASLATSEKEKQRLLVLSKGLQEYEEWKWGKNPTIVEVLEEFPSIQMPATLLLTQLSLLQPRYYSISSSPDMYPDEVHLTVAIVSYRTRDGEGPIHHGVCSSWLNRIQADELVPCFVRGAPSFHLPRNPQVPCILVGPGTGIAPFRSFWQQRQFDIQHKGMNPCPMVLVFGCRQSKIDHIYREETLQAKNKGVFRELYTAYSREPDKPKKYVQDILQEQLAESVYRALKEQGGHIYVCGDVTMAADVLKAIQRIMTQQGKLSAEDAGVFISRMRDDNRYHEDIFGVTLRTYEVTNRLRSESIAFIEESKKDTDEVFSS
T1 sequence (Q07157 whole entry, the tested form may be a part): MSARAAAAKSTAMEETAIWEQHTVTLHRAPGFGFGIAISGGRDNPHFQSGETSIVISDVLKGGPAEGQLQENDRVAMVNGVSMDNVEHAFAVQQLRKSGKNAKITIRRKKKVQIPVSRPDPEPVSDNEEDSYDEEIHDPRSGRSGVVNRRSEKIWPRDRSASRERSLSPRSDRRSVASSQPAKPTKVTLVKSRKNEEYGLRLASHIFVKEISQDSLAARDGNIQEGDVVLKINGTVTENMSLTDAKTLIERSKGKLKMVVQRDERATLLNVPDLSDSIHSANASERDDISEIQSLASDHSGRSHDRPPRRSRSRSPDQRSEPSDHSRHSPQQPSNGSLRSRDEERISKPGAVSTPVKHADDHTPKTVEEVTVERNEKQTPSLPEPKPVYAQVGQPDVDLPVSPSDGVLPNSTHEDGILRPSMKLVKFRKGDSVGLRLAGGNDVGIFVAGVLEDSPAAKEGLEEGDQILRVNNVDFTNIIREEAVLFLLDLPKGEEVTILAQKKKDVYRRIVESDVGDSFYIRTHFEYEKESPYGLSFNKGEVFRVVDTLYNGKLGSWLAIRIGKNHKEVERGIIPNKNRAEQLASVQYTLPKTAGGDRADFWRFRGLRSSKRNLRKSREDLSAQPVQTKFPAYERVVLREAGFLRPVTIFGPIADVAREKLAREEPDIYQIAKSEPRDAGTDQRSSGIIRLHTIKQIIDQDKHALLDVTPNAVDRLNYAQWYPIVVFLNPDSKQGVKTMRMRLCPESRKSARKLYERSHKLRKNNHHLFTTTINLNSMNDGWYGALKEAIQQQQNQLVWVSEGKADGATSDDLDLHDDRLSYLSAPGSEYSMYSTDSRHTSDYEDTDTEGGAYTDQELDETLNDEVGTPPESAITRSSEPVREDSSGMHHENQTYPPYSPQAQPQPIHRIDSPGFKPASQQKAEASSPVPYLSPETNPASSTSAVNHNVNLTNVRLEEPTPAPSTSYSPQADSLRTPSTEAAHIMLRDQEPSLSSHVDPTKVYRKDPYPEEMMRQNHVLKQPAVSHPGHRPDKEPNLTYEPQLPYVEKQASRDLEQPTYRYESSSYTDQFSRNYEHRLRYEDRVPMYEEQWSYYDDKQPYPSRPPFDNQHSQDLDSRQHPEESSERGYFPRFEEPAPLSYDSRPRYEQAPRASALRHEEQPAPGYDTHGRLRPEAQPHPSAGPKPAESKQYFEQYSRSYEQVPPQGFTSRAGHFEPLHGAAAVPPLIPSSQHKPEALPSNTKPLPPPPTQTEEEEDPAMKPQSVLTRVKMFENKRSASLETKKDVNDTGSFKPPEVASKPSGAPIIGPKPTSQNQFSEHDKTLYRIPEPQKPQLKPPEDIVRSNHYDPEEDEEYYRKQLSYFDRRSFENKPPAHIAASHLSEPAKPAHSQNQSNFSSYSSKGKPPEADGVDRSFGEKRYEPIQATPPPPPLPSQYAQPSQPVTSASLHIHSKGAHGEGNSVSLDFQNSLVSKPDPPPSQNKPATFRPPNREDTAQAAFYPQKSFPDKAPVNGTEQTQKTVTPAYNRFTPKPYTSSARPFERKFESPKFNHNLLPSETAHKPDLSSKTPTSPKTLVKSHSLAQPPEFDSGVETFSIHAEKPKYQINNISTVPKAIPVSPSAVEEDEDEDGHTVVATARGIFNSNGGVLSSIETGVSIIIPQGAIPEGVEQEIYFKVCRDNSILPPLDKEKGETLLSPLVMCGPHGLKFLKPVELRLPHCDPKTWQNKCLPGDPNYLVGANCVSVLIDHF
T6 sequence (Q9Y2H9 whole entry, the tested form may be a part): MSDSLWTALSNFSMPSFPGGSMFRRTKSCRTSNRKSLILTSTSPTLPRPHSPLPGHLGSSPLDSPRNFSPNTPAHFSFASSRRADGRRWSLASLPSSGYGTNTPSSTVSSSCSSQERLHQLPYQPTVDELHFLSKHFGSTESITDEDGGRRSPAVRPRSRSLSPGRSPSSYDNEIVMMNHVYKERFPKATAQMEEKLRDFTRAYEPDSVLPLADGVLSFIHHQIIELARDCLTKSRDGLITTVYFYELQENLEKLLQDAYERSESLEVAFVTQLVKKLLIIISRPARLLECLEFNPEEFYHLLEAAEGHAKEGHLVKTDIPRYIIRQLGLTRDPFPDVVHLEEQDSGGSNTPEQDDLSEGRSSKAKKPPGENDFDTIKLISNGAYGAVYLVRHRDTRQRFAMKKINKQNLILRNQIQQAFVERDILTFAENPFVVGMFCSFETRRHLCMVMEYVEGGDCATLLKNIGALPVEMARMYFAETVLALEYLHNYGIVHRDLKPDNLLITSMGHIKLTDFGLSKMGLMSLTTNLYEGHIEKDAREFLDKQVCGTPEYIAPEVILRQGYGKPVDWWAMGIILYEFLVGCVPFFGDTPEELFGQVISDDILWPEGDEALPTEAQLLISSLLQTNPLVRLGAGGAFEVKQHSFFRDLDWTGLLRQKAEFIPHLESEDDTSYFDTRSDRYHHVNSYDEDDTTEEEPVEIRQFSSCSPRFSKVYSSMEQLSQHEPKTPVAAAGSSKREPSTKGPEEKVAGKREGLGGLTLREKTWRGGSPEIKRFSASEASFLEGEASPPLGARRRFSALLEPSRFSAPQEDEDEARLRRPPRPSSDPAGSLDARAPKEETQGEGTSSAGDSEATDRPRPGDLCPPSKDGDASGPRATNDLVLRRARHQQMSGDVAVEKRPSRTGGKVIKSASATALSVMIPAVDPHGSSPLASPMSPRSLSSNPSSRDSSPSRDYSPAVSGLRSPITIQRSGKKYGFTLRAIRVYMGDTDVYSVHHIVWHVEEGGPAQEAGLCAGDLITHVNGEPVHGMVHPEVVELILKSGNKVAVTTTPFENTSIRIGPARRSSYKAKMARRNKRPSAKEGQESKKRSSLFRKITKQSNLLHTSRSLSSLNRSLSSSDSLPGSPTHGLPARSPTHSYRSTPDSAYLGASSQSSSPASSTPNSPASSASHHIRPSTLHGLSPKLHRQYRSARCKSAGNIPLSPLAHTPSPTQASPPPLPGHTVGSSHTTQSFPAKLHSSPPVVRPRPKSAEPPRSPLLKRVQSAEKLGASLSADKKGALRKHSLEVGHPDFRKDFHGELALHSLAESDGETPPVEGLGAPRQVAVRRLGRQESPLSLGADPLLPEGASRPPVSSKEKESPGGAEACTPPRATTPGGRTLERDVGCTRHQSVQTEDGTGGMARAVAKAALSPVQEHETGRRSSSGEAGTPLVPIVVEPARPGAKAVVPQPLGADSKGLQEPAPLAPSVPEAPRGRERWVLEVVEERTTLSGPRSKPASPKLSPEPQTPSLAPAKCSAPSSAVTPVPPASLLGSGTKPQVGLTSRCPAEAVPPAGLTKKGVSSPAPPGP

For `CC[C@H](C)[C@H](NC(=O)[C@H](Cc1ccc(O)cc1)NC(=O)[C@@H](NC(=O)[C@@H]1CCCN1C(=O)[C@H](CCC(N)=O)NC(=O)[C@H](CCC(=O)O)NC(=O)[C@H](CCC(N)=O)NC(=O)[C@H](C)NC(=O)[C@@H](NC(=O)[C@H](CC(C)C)NC(=O)[C@H](CC(C)C)NC(=O)[C@H](CCCNC(=N)N)NC(=O)[C@H](Cc1ccc(O)cc1)NC(=O)[C@H](CCSC)NC(=O)[C@H](C)NC(=O)[C@H](C)NC(=O)[C@@H]1CCCN1C(=O)[C@H](CCSC)NC(=O)[C@@H](NC(=O)[C@H](CCCCN)NC(=O)CCCC[C@@H]1SC[C@@H]2NC(=O)N[C@@H]21)[C@@H](C)O)[C@@H](C)O)C(C)C)C(=O)O` [MINT-1] (Biotin-KTMPAAMYRLLTAQEQPVYI-OH; C-terminus assumed), the Classification in experiment [1] (PDZ ZO-1, PDZ Domain 1) is 1 (A450 nm 0-1); in experiment [2] it was 4 (A450 nm 3-4).
In the case of `CC[C@H](C)[C@H](NC(=O)[C@H](CCC(N)=O)NC(=O)CCCC[C@@H]1SC[C@@H]2NC(=O)N[C@@H]21)C(=O)N[C@@H](CO)C(=O)N1CCC[C@H]1C(=O)NCC(=O)NCC(=O)N[C@@H](CC(C)C)C(=O)N[C@@H](CCC(=O)O)C(=O)N1CCC[C@H]1C(=O)N1CCC[C@H]1C(=O)N[C@@H](CO)C(=O)N[C@@H](CCC(=O)O)C(=O)N[C@@H](CCCCN)C(=O)N[C@@H](Cc1c[nH]cn1)C(=O)N[C@@H](Cc1ccccc1)C(=O)N[C@@H](CCCNC(=N)N)C(=O)N[C@@H](CCC(=O)O)C(=O)N[C@H](C(=O)N[C@@H](CCC(=O)O)C(=O)N[C@H](C(=O)O)C(C)C)[C@@H](C)O` [Tax], the Classification is listed as 1 (A450 nm 0-1) in experiment [3], 2 (A450 nm 1-2) in experiment [4] and 5 (A450 nm of 4 more than 2× repeated) in experiment [5].
Consider TQGFPGPATWRRISSLESEV, for which the Classification was 4 (A450 nm 3-4) in experiment [3]; 4 (A450 nm 3-4) in experiment [4]; 4 (A450 nm 3-4) in experiment [5]; 1 (A450 nm 0-1) in experiment [2]; 1 (A450 nm 0-1) in experiment [6].
On to `CC[C@H](C)[C@H](NC(=O)[C@H](CCCCN)NC(=O)[C@@H](NC(=O)[C@H](CO)NC(=O)[C@@H]1CCCN1C(=O)[C@H](Cc1ccccc1)NC(=O)[C@@H](NC(=O)[C@@H](NC(=O)[C@H](CCCNC(=N)N)NC(=O)[C@H](CCC(=O)O)NC(=O)[C@H](CC(C)C)NC(=O)[C@H](CC(C)C)NC(=O)[C@H](CC(C)C)NC(=O)[C@@H](NC(=O)CNC(=O)[C@@H](NC(=O)CCCC[C@@H]1SC[C@@H]2NC(=O)N[C@@H]21)C(C)C)[C@@H](C)O)C(C)C)[C@@H](C)CC)C(C)C)C(=O)N[C@@H](C)C(=O)N[C@H](C(=O)N[C@@H](CC(C)C)C(=O)N[C@H](C(=O)O)C(C)C)[C@@H](C)O` [Adenovirus E4 Type9], for which the Classification in experiment [1] (PDZ ZO-1, PDZ Domain 1, PL peptide 10 uM) is reported as 2 (A450 nm 1-2); in experiment [2] (PL peptide 10 uM) it was 5 (A450 nm of 4 more than 2× repeated).
With `CC(C)C[C@H](NC(=O)[C@H](CC(=O)O)NC(=O)[C@H](CO)NC(=O)[C@H](CCC(=O)O)NC(=O)CNC(=O)[C@H](Cc1ccc(O)cc1)NC(=O)[C@H](CC(C)C)NC(=O)[C@H](C)NC(=O)[C@H](CO)NC(=O)[C@H](CO)NC(=O)[C@H](Cc1ccccc1)NC(=O)[C@H](C)NC(=O)[C@H](C)NC(=O)[C@H](Cc1ccc(O)cc1)NC(=O)[C@H](CC(=O)O)NC(=O)[C@H](CC(C)C)NC(=O)[C@H](C)NC(=O)CNC(=O)[C@@H]1CCCN1C(=O)[C@@H](NC(=O)CCCC[C@@H]1SC[C@@H]2NC(=O)N[C@@H]21)C(C)C)C(=O)O` [a-actinin 2] (Biotin-VPGALDYAAFSSALYGESDL-OH; C-terminus assumed), the Classification was 5 (A450 nm of 4 more than 2× repeated) in experiment [3], 5 (A450 nm of 4 more than 2× repeated) in experiment [4], 1 (A450 nm 0-1) in experiment [5] and 2 (A450 nm 1-2) in experiment [6].
On to `CC(C)C[C@H](NC(=O)[C@H](C)NC(=O)[C@H](CO)NC(=O)CNC(=O)[C@@H](NC(=O)CCCC[C@@H]1SC[C@@H]2NC(=O)N[C@@H]21)[C@@H](C)O)C(=O)N[C@@H](CCC(N)=O)C(=O)N[C@@H](C)C(=O)N[C@@H](Cc1c[nH]c2ccccc12)C(=O)N[C@@H](CCCNC(=N)N)C(=O)N[C@@H](Cc1c[nH]cn1)C(=O)N[C@H](C(=O)N[C@@H](CO)C(=O)N[C@@H](CCCNC(=N)N)C(=O)N[C@@H](CCC(N)=O)C(=O)N[C@@H](C)C(=O)N[C@H](C(=O)N[C@@H](CCC(=O)O)C(=O)N[C@@H](CO)C(=O)N[C@H](C(=O)N[C@H](C(=O)O)C(C)C)[C@@H](C)O)[C@@H](C)O)[C@@H](C)O` [HPV E6 #66 (modified)] (Biotin-TGSALQAWRHTSRQATESTV-OH; C-terminus assumed), for which the Classification in experiment [4] is on record as 2 (A450 nm 1-2); in experiment [5] it was 1 (A450 nm 0-1).
For `CC[C@H](C)[C@H](NC(=O)[C@H](Cc1ccc(O)cc1)NC(=O)[C@H](CC(C)C)NC(=O)[C@H](CCC(N)=O)NC(=O)[C@H](Cc1c[nH]cn1)NC(=O)[C@H](CO)NC(=O)[C@H](C)NC(=O)[C@H](CC(C)C)NC(=O)[C@@H](NC(=O)[C@H](CC(=O)O)NC(=O)[C@H](CCSC)NC(=O)[C@H](Cc1ccccc1)NC(=O)[C@@H]1CCCN1C(=O)[C@H](CCCNC(=N)N)NC(=O)[C@@H](NC(=O)[C@H](CC(C)C)NC(=O)[C@H](CC(N)=O)NC(=O)[C@H](CC(=O)O)NC(=O)[C@@H](NC(=O)[C@H](CO)NC(=O)CCCC[C@@H]1SC[C@@H]2NC(=O)N[C@@H]21)[C@@H](C)O)C(C)C)[C@@H](C)O)C(=O)O` [presenilin-2] (Biotin-STDNLVRPFMDTLASHQLYI-OH; C-terminus assumed), the Classification was 1 (A450 nm 0-1) in experiment [1] (PDZ ZO-1, PDZ Domain 1) and 1 (A450 nm 0-1) in experiment [2].
As to `CC[C@H](C)[C@H](NC(=O)[C@H](CC(=O)O)NC(=O)[C@H](CCC(=O)O)NC(=O)[C@H](CCCNC(=N)N)NC(=O)[C@@H](NC(=O)CCCC[C@@H]1SC[C@@H]2NC(=O)N[C@@H]21)[C@@H](C)O)C(=O)N[C@@H](Cc1ccc(O)cc1)C(=O)N[C@H](C(=O)N[C@@H](CC(N)=O)C(=O)N[C@@H](Cc1ccc(O)cc1)C(=O)N1CCC[C@H]1C(=O)N[C@H](C(=O)N[C@@H](Cc1ccccc1)C(=O)N[C@@H](CO)C(=O)N[C@@H](CCCNC(=N)N)C(=O)N[C@@H](CCCNC(=N)N)C(=O)N1CCC[C@H]1C(=O)N[C@@H](CCCCN)C(=O)N[C@H](C(=O)N[C@@H](CCCNC(=N)N)C(=O)N[C@H](C(=O)O)C(C)C)[C@@H](C)O)[C@@H](C)O)C(C)C` [DNAM-1] (Biotin-TREDIYVNYPTFSRRPKTRV-OH; C-terminus assumed), the Classification in experiment [1] (PDZ ZO-1, PDZ Domain 1) is 2 (A450 nm 1-2); in experiment [2] it was 1 (A450 nm 0-1).
Regarding CKR5_HUMAN (ERASSVYTRSTGEQEISVGL), the Classification in experiment [4] is recorded as 1 (A450 nm 0-1).
Consider “ELLQFCRTPNPALKNGQYWV (Biotin-ELLQFCRTPNPALKNGQYWV)”, for which the Classification in experiment [1] (PDZ ZO-1, PDZ Domain 1) is 5 (A450 nm of 4 more than 2× repeated); in experiment [1] (PDZ ZO-1, PDZ Domain 2), 4 (A450 nm 3-4); in experiment [3] it was 2 (A450 nm 1-2); in experiment [2] it was 2 (A450 nm 1-2).
